Measured values reported in the NIST ThermoML archive (doi:10.1016/j.jct.2015.08.014).

Experiment: xn = mol fraction of the nth substance listed
Conditions: 273.15 K, 100 kPa, Liquid, Alternating current cell with electrodes

CCCC[N+]1(C)CCCC1.N#CN=C=[N-] [1-butyl-1-methylpyrrolidinium dicyanamide] + O=C1CCCO1
electrical conductivity [S/m]
Conditions	Frequency=0.00446429 MHz	Frequency=0.005 MHz	Frequency=0.005454 MHz	Frequency=0.006 MHz	Frequency=0.00652174 MHz	Frequency=0.00694444 MHz	Frequency=0.0075 MHz	Frequency=0.008 MHz	Frequency=0.00857143 MHz	Frequency=0.00892857 MHz
x1 = 0.0463	–	0.977	0.977	0.977	0.978	0.978	0.978	0.978	0.978	0.978
x1 = 0.0987	1.42	1.42	1.43	1.43	1.43	1.43	1.43	1.43	1.43	1.43
x1 = 0.1449	1.56	1.56	1.56	1.56	1.56	1.56	1.56	1.56	1.57	1.57
x1 = 0.1859	1.633	1.633	1.634	1.634	1.634	1.634	1.634	1.635	1.635	1.635
x1 = 0.2493	1.516	1.517	1.517	1.517	1.517	1.517	1.517	1.517	1.517	1.517
x1 = 0.3029	1.42	1.42	1.42	1.42	1.42	1.42	1.42	1.42	1.42	1.42
x1 = 0.3845	1.25	1.25	1.25	1.25	1.25	1.25	1.25	1.25	1.25	1.25
x1 = 0.4985	1.03	1.03	1.03	1.03	1.03	1.03	1.03	1.03	1.03	1.03
x1 = 0.6954	0.742	0.742	0.742	0.742	0.742	0.742	0.742	0.742	0.742	0.742
x1 = 0.9013	0.562	0.562	0.562	0.562	0.563	0.563	0.563	0.563	0.563	–
x1 = 1	0.523	0.523	0.523	0.523	0.523	0.523	0.523	0.523	0.523	–
